According to PMC5467235, “Variation in auxin sensing guides AUX/IAA transcriptional repressor ubiquitylation and destruction” (Nature Communications, 2017):
Substitutions are numbered along the chain they refer to.

How the values were obtained:
[1] = target: T1, AFB2-IAA6 (yeast two-hybrid) (Arabidopsis thaliana, UniProt Q38824+Q9LW29); test: yeast two-hybrid, beta-galactosidase reporter; type: cell-based; details: auxin-dependent association in yeast; low micromolar IAA
T1 construct: LexA DBD-AFB2 and AD-IAA6 fusions in yeast diploids
T1 sequence (Q9LW29 1-575): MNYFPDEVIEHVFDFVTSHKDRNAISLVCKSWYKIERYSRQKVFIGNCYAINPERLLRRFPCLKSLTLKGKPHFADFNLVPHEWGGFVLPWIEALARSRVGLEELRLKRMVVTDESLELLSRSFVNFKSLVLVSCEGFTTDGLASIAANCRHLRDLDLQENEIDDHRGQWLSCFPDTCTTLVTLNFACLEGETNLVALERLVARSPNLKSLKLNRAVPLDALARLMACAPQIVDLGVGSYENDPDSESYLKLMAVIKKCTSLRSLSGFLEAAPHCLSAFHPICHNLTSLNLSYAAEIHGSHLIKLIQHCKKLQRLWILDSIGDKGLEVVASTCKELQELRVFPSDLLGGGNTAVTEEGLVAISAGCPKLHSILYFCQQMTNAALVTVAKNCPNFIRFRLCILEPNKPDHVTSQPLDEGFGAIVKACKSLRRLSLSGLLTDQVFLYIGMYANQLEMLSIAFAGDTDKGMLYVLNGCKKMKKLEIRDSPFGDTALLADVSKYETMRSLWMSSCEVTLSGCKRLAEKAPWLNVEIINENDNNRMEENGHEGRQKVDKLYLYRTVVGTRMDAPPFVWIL
T1 sequence (Q38824 1-189): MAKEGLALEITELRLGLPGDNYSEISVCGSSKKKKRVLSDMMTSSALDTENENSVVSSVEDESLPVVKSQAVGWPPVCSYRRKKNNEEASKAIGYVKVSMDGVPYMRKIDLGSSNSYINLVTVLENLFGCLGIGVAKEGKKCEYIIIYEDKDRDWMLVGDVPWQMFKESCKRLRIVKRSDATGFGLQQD

[2] = target: T2, ASK1-TIR1-IAA6 co-receptor complex (TIR1-IAA6) (Arabidopsis thaliana, UniProt Q38824+Q570C0); test: homologous competition radioligand binding; details: unlabelled IAA against 50 nM [3H]IAA
T2 construct: ASK1-TIR1 from insect cells (Sf9 or Hi5), purified; IAA6 N-terminally GST-tagged from E. coli, full length; with SKP1-like protein 1A
T2 sequence (Q570C0 1-594): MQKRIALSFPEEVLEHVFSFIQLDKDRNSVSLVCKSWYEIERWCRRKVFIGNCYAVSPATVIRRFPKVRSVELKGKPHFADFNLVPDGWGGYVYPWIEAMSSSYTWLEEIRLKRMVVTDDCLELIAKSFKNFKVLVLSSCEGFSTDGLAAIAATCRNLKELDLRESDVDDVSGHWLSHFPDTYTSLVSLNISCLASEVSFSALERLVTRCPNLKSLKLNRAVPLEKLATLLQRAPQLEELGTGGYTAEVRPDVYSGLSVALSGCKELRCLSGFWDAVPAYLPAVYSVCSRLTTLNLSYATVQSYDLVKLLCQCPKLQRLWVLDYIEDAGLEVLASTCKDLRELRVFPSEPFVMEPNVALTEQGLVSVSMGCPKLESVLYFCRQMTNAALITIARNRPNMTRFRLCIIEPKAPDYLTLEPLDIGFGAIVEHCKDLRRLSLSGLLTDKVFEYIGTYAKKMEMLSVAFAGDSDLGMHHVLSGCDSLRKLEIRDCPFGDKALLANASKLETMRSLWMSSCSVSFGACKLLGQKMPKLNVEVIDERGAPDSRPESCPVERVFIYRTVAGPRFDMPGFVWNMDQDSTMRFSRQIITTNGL
T2 sequence (Q38824 1-189): T1 sequence (Q38824 1-189)
T2 sequence (Q39255 1-160 partner): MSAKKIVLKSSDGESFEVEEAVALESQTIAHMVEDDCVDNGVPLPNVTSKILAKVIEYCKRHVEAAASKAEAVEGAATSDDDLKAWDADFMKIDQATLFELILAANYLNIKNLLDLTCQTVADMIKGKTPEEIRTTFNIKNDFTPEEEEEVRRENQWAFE

[3] = target: T2, ASK1-TIR1-IAA6 co-receptor complex (TIR1-IAA6); test: homologous competition radioligand binding
[4] = target: T3, ASK1-TIR1-IAA19 co-receptor complex (TIR1-IAA19) (Arabidopsis thaliana, UniProt O24409+Q570C0); test: homologous competition radioligand binding
T3 construct: ASK1-TIR1 from insect cells (Sf9 or Hi5), purified; IAA19 N-terminally GST-tagged from E. coli, full length; with SKP1-like protein 1A
T3 sequence (Q570C0 1-594): T2 sequence (Q570C0 1-594)
T3 sequence (O24409 1-197): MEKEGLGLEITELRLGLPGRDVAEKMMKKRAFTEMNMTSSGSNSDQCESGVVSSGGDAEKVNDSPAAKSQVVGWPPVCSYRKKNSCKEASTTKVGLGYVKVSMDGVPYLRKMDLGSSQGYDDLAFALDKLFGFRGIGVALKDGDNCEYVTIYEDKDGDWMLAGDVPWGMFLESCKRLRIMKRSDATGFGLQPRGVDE
T3 sequence (Q39255 1-160 partner): T2 sequence (Q39255 1-160 partner)

[5] = target: T3, ASK1-TIR1-IAA19 co-receptor complex (TIR1-IAA19); test: homologous competition radioligand binding; details: unlabelled IAA against 25 nM [3H]IAA
[6] = target: T4, AFB2-IAA19 (yeast two-hybrid) (Arabidopsis thaliana, UniProt O24409+Q9LW29); test: yeast two-hybrid, beta-galactosidase reporter; type: cell-based; details: auxin-dependent association in yeast; low micromolar IAA
T4 construct: LexA DBD-AFB2 and AD-IAA19 fusions in yeast diploids
T4 sequence (Q9LW29 1-575): T1 sequence (Q9LW29 1-575)
T4 sequence (O24409 1-197): T3 sequence (O24409 1-197)

[7] = target: T5, AFB1-IAA19 (yeast two-hybrid) (Arabidopsis thaliana, UniProt O24409+Q9ZR12); test: yeast two-hybrid, beta-galactosidase reporter; type: cell-based; details: auxin-dependent association in yeast; low micromolar IAA
T5 construct: gene GRH1; LexA DBD-AFB1 and AD-IAA19 fusions in yeast diploids
T5 sequence (Q9ZR12 1-585): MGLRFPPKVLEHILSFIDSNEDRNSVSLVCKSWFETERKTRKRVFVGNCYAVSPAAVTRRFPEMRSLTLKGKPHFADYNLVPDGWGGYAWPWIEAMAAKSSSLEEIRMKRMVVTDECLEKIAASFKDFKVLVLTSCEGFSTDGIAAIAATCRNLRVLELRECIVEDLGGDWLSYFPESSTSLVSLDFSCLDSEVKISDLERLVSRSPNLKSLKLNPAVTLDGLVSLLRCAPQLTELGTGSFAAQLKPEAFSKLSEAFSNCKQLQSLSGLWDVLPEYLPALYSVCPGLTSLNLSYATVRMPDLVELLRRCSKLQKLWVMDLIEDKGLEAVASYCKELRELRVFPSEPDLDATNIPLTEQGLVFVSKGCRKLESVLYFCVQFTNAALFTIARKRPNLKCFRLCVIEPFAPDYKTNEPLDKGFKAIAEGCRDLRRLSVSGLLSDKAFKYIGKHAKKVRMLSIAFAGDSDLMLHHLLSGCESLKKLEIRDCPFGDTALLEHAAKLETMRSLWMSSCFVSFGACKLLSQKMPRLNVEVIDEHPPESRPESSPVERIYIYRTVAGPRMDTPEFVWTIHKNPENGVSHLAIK
T5 sequence (O24409 1-197): T3 sequence (O24409 1-197)

[8] = target: T6, ASK1-TIR1-IAA19 co-receptor complex (TIR1-IAA19) (Arabidopsis thaliana, UniProt O24409+Q570C0, O24409:P76S); test: one-point [3H]IAA saturation binding; details: labelled compound; 200 nM [3H]IAA; msg2-1 degron mutant
T6 construct: ASK1-TIR1 from insect cells (Sf9 or Hi5), purified; IAA19 N-terminally GST-tagged from E. coli, full length; with SKP1-like protein 1A
T6 sequence (Q570C0 1-594): T2 sequence (Q570C0 1-594)
T6 sequence (O24409 1-197 P76S): T3 sequence (O24409 1-197) with P76S
T6 sequence (Q39255 1-160 partner): T2 sequence (Q39255 1-160 partner)

[9] = target: T2, ASK1-TIR1-IAA6 co-receptor complex (TIR1-IAA6); test: [3H]IAA saturation radioligand binding
[10] = target: T7, AFB1-IAA6 (yeast two-hybrid) (Arabidopsis thaliana, UniProt Q38824+Q9ZR12); test: yeast two-hybrid, beta-galactosidase reporter; type: cell-based; details: auxin-dependent association in yeast; low micromolar IAA
T7 construct: gene GRH1; LexA DBD-AFB1 and AD-IAA6 fusions in yeast diploids
T7 sequence (Q9ZR12 1-585): T5 sequence (Q9ZR12 1-585)
T7 sequence (Q38824 1-189): T1 sequence (Q38824 1-189)

[11] = target: T8, ASK1-TIR1-IAA6 co-receptor complex (TIR1-IAA6) (Arabidopsis thaliana, UniProt Q38824+Q570C0, Q38824:C78R); test: one-point [3H]IAA saturation binding; details: labelled compound; 200 nM [3H]IAA; shy1-1 degron mutant
T8 construct: ASK1-TIR1 from insect cells (Sf9 or Hi5), purified; IAA6 N-terminally GST-tagged from E. coli, full length; with SKP1-like protein 1A
T8 sequence (Q570C0 1-594): T2 sequence (Q570C0 1-594)
T8 sequence (Q38824 1-189 C78R): T1 sequence (Q38824 1-189) with C78R
T8 sequence (Q39255 1-160 partner): T2 sequence (Q39255 1-160 partner)

[12] = target: T3, ASK1-TIR1-IAA19 co-receptor complex (TIR1-IAA19); test: [3H]IAA saturation radioligand binding

Ki [3]: 99.3 ± 11.9 nM
Ki [4]: 33.5 ± 3.7 nM
Kd [9]: 72 ± 10.5 nM
Kd [12]: 15.6 ± 2 nM
SMILES: O=C(O)Cc1c[nH]c2ccccc12 [IAA]
yeast two-hybrid, beta-galactosidase reporter [1]: IAA6 and IAA19 interacted in an auxin-dependent manner with TIR1, AFB1 and AFB2
IC50 [2]: determined IC50 and Ki values for each of the complexes
IC50 [5]: determined IC50 and Ki values for each of the complexes
yeast two-hybrid, beta-galactosidase reporter [6]: IAA6 and IAA19 interacted in an auxin-dependent manner with TIR1, AFB1 and AFB2
yeast two-hybrid, beta-galactosidase reporter [7]: IAA6 and IAA19 interacted in an auxin-dependent manner with TIR1, AFB1 and AFB2
specific binding at 200 nM [8]: IAA6^C78R/shy1-1 and IAA19^P76S/msg2-1 mutants that mimic stabilized version of the proteins affect significantly
yeast two-hybrid, beta-galactosidase reporter [10]: IAA6 and IAA19 interacted in an auxin-dependent manner with TIR1, AFB1 and AFB2
specific binding at 200 nM [11]: IAA6^C78R/shy1-1 and IAA19^P76S/msg2-1 mutants that mimic stabilized version of the proteins affect significantly
